This passage reports Activity results from ChEMBL document CHEMBL4043071, “Neuroprotective Caffeoylquinic Acid Derivatives from the Flowers of Chrysanthemum morifolium” (J Nat Prod, 2017).

SMILES strings stand for the structures. Activity calls are given as the source filed them. No cut-off for these calls is given here.

Data set [1] has as its system SH-SY5Y. Put plainly: Neuroprotective activity in human SH-SY5Y cells assessed as reduction in hydrogen peroxide-induced cytotoxicity by measuring cell viability level at 10 uM (reference value: 50.7+/- 2.6%). Format: functional.
Data set [2] relates to SH-SY5Y. Description: Neuroprotective activity in human SH-SY5Y cells assessed as reduction in oxygen-glucose deprivation-induced cytotoxicity at 10 uM relative to untreated control. Format: functional, cell-based.
Data set [3] relates to SH-SY5Y. Put plainly: Neuroprotective activity in human SH-SY5Y cells assessed as reduction in glutamate-induced cytotoxicity at 10 uM relative to untreated control. Format: functional, cell-based.
The test system of data set [4] is SH-SY5Y. Put plainly: Cytotoxicity against human SH-SY5Y cells assessed as reduction in cell viability level at 10 uM relative to untreated control. Format: cell-based.

Take `O=C(/C=C/c1ccc(O)c(O)c1)O[C@@H]1[C@H](O)C[C@@](O)(C(=O)O)C[C@H]1OC(=O)/C=C/c1ccc(O)c(O)c1`: the Activity in the data set with SH-SY5Y [1] worked out at 75.2%. For the same compound, the result in the data set with SH-SY5Y [2] and in the data set with SH-SY5Y [3] was inactive.
With `O=C(/C=C/c1ccc(O)c(O)c1)O[C@@H]1C[C@](O)(C(=O)O)C[C@@H](O)[C@H]1O`, the outcome with SH-SY5Y [1], in the data set on SH-SY5Y [2] and with SH-SY5Y [3] was inactive.
Consider `CC(=O)O[C@@H]1[C@H](O)C[C@@](O)(C(=O)O)C[C@H]1OC(=O)/C=C/c1ccc(O)c(O)c1`, for which the outcome in the data set on SH-SY5Y [2] and in the data set on SH-SY5Y [3] was inactive. Further, the Activity entry with SH-SY5Y [4] is recorded as “Toxic”.
For the compound `O=C(O)[C@H]1O[C@@H](Oc2cc(O)c3c(=O)cc(-c4ccc(O)c(O)c4)oc3c2)[C@H](O)[C@@H](O)[C@@H]1O`, the Activity with SH-SY5Y [1] is 80.9%. The result in the data set with SH-SY5Y [2] and with SH-SY5Y [3] was inactive.
On to `O=c1cc(-c2ccc(O[C@@H]3O[C@H](CO)[C@@H](O)[C@H](O)[C@H]3O)c(O)c2)oc2cc(O[C@@H]3O[C@H](CO)[C@@H](O)[C@H](O)[C@H]3O)cc(O)c12`, for which the outcome in the data set with SH-SY5Y [2] and with SH-SY5Y [3] was inactive.
`O=C(/C=C/c1ccc(O)c(O)c1)O[C@@H]1[C@H](O)C[C@@](O)(C(=O)O)C[C@H]1OC(=O)[C@@H]1[C@@H]2O[C@@](CO)(C=CC2=O)[C@H]1c1ccc(O)c(O)c1`: the Activity in the data set with SH-SY5Y [1] was 76.7%. Besides, the outcome in the data set on SH-SY5Y [2] and in the data set on SH-SY5Y [3] was inactive.
`O=C(/C=C/c1ccc(O)c(O)c1)O[C@@H]1C[C@@](O)(C(=O)O)C[C@@H](O)[C@@H]1OC(=O)[C@@H]1[C@@H](c2ccc(O)c(O)c2)[C@@]2(CO)C=CC(=O)[C@@H]1O2`: the Activity with SH-SY5Y [1] turned out to be 75.6%. In addition, the result with SH-SY5Y [2] and with SH-SY5Y [3] was inactive.
As for `CC(=O)OC[C@H]1O[C@@H](Oc2cc(O)c3c(=O)cc(-c4ccc(O)c(O)c4)oc3c2)[C@H](O)[C@@H](O)[C@@H]1O`, the result with SH-SY5Y [2] and in the data set with SH-SY5Y [3] was inactive.
Take `O=c1cc(-c2ccc(O)cc2)oc2cc(O[C@@H]3O[C@H](CO)[C@@H](O)[C@H](O)[C@H]3O)cc(O)c12`: the result in the data set on SH-SY5Y [2] and in the data set on SH-SY5Y [3] was inactive.
On to `O=C(/C=C/c1ccc(O)c(O)c1)O[C@@H]1[C@H](O)C[C@@](O)(C(=O)O)C[C@H]1OC(=O)[C@@H]1[C@@H](c2ccc(O)c(O)c2)[C@@]2(CO)C=CC(=O)[C@@H]1O2`, for which, in the data set on SH-SY5Y [1], the Activity turned out to be 78.4%. In addition, the result with SH-SY5Y [2] and in the data set with SH-SY5Y [3] was inactive.
Consider `CCCC[C@@H]1OC(=O)c2ccccc21` [(3S)-BUTYLPHTHALIDE], for which the Activity with SH-SY5Y [1] is 73.9%.
`COc1ccc(-c2cc(=O)c3c(O)cc(O[C@@H]4O[C@H](CO)[C@@H](O)[C@H](O)[C@H]4O)cc3o2)cc1O`: the outcome in the data set with SH-SY5Y [2] and in the data set on SH-SY5Y [3] was inactive.
For the compound `O=c1cc(-c2ccc(O)c(O)c2)oc2cc(O[C@@H]3O[C@H](CO)[C@@H](O)[C@H](O)[C@H]3O)cc(O)c12` [GALUTEOLIN], the Activity in the data set on SH-SY5Y [1] is on record as 87.6%. Moreover, the outcome in the data set on SH-SY5Y [2] and with SH-SY5Y [3] was inactive.
As to `O=C(/C=C/c1ccc(O)c(O)c1)O[C@@H]1C[C@@](OC(=O)/C=C/c2ccc(O)c(O)c2)(C(=O)O)C[C@@H](O)[C@@H]1O` [CYNARIN], in the data set on SH-SY5Y [1], the Activity is reported as 77.2%. Besides, the result in the data set with SH-SY5Y [2] and in the data set with SH-SY5Y [3] was inactive.
